In patent US12409158B2, “Combination therapy for treating cancer” (GONGWIN BIOPHARM CO., LTD, priority 2022, dated 2025):

Key:
Type in all cases: in vivo, BALB/c nude mice
M5 canine melanoma tumor = test: TUNEL/DAPI assay of apoptosis in excised M5 tumors; settings: cisplatin 2 mg/kg, PTS 100 mg/kg IP three times per week
Method: (§1) The mice were observed daily for clinical signs, weighed them every three days, and at one month after tumor-cell implantation euthanized them with an overdose of anesthetic combined with carbon dioxide. Immediately before sacrificing the mice, the blood was collected from them under anesthesia for hematological assessment. After euthanizing the mice, the tumors were excised immediately. The tumor specimens were divided into two groups. One group was treated with 10% formalin and embedded the specimens in paraffin. These specimens were investigated by hematoxylin and eosin staining; terminal deoxyribonucleotidyl transferase (TdT)-mediated biotin-16-dUTP nick-end labeling (TUNEL assay; APO-BrdU TUNEL Assay Kit, BD Pharmingen, San Diego, CA, USA); and IHC for IL-1β, TNF-α, TGF-β, and CD44, using primary antibodies against these factors (Merck, Billerica, MA, USA). Protein expression was assessed via IHC with the […] mouse/rabbit polymer detection system produced by BioTnA (Kaohsiung, Taiwan). A high-resolution digital microscope (Moticam 2300, Motic Instruments, Richmond, Canada) equipped with Motic Images Plus (version 2.0) was used to capture and analyze the images. The other groups of tumor specimens were first minced coarsely and homogenized, and then stored in a freezer at -80° C.

phosphorylated ERK = test: Western blot of phosphorylated ERK in M5 tumors; settings: vs control group
Method: as §1, with “[…] Protein expression and phosphorylation were quantified with ImageJ (National Institutes” for “The other groups”, “Health, Bethesda, […], USA).” for “tumor specimens were first minced coarsely and homogenized, and then stored in a freezer at -80° C.”

IL-1β = test: IHC analysis of IL-1β in M5 tumors; settings: relative to the control group
Method: as §1

IL-6 = test: ELISA of serum IL-6 in M5 tumor-bearing mice; settings: relative to the control group
Method: The serum levels of IL-6 in the blood samples were measured using commercial mouse kits (ab213749 and ab100697; Abcam, Cambridge, MA, USA) according to the manufacturer's protocol. 50 μl of samples were added to each of the wells in 96-well antibody-coated plates and then incubated for 2 hours at room temperature. 50 μl of the detector antibody solution was loaded into each well and incubated the plates for a further 1 hour at room temperature. Next, […] of HRP-Streptavidin solution (ab210901, Abcam) was added to each well, and once again incubated the plates for 1 hour at room temperature. Finally, 100 μl of tetramethylbenzidine substrate was added to each well and incubated the plates for another 10 min in the dark, again at room temperature. The reaction was stopped by adding 100 μl of stop solution. The wavelength of absorbance was at 450 nm and results were expressed in pg/ml.

cyclooxygenase-2 (COX-2) = test: Western blot of COX-2 in M5 tumors; settings: vs control group
Method: The mice were observed daily for clinical signs, weighed them every three days, and at one month after tumor-cell implantation euthanized them with an overdose of anesthetic combined with carbon dioxide. Immediately before sacrificing the mice, the blood was collected from them under anesthesia for hematological assessment. After euthanizing the mice, the tumors were excised immediately. The tumor specimens were divided into two groups. One group was treated with 10% formalin and embedded the specimens in paraffin. These specimens were investigated by hematoxylin and eosin staining; terminal deoxyribonucleotidyl transferase (TdT)-mediated biotin-16-dUTP nick-end labeling (TUNEL assay; APO-BrdU TUNEL Assay Kit, BD Pharmingen, San Diego, CA, USA); and IHC for IL-1β, TNF-α, TGF-β, and CD44, using primary antibodies against these factors (Merck, Billerica, MA, USA). Protein expression was assessed via IHC with the TAlink mouse/rabbit polymer detection system produced by BioTnA (Kaohsiung, Taiwan). […]
Western blotting on the second group of tumor specimens was performed according to standard protocol (Wu et al 2020). […] Protein expression and phosphorylation were quantified with ImageJ (National Institutes of Health, Bethesda, […], USA).

CD44 = test: IHC analysis of CD44 in M5 tumors; settings: relative to the control group
Method: as §1

CD45 = test: IHC analysis of CD45 in M5 tumors; settings: IHC staining, FIGS. 11A and 11B

Compound | TUNEL-positive cell count as multiple of the control (M5 canine melanoma tumor) | phosphorylated ERK expression (phosphorylated ERK) | IL-1β activity reduction (IL-1β) | serum IL-6 expression reduction (IL-6) | Expression of cyclooxygenase-2 (COX-2) (cyclooxygenase-2 (COX-2)) | CD44 expression reduction (CD44) | CD45 activity, times higher than the control group (CD45)
N.N.[Cl][Pt][Cl] [Cisplatin, cisplatin, reference compound] | 3.9 times | significantly higher | 29.7% | 62.8% | lower | about 40.9% | 1.4 times
Cc1ccc(S(N)(=O)=O)cc1 [PTS, p-Toluenesulfonamide] | 3.5 times | significantly higher | 26.5% | 57.5% | lower | ~34.4% | 1.3 times
